According to US11202761B2, “Formulations for oral delivery of adsorbents in the gut” (Da Volterra, priority 2010, dated 2021):
Like-named read-outs stand apart in the source and are kept apart here.

What was measured:
[1] = In vitro adsorption kinetics of SN-38 onto activated charcoal; assay type: physicochemical; settings: activated charcoal/SN-38 ratio of 10:1, 50 μg/mL in 0.01 M NaOH pH 12
Procedure: SN-38 was dissolved at a concentration of 50 μg/mL in 0.01 M NaOH pH 12. Non adsorbed SN-38 was detected after centrifugation and filtration by at its absorbance at 411 nm using a spectrophotometer.

topoisomerase I = biological target: T1, topoisomerase I (Homo sapiens, UniProt P11387); settings: in vitro; cited from earlier work
T1 sequence (P11387 1-765): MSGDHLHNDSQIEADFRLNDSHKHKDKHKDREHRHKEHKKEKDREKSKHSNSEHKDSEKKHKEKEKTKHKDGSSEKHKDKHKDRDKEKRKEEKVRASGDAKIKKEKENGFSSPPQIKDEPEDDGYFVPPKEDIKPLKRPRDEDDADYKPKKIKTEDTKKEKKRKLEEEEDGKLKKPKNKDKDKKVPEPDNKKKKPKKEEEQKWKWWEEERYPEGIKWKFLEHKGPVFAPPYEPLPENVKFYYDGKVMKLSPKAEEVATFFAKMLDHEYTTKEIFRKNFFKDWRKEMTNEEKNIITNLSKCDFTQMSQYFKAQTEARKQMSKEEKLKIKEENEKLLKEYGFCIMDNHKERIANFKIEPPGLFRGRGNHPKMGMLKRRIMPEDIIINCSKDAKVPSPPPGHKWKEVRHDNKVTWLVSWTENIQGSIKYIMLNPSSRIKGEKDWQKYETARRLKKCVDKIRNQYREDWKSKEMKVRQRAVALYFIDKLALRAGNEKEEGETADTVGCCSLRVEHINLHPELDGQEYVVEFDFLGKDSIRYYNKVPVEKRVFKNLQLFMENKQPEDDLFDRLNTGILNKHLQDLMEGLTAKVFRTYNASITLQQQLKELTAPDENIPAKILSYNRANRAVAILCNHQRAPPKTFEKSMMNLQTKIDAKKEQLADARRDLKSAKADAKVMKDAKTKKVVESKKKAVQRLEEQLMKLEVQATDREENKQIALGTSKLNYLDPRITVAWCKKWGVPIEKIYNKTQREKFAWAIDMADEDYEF

[2] = in vitro adsorption of various antibiotics onto activated charcoal; assay type: physicochemical; settings: PBS pH 6, 37° C.
Procedure: (15 ml polypropylene tube, slow rotation 20 rpm), • sampling at 0.5 h, 1 h and 2 h, • Residual antibiotic dosage (i.e., not adsorbed) was determined by UV/visible spectrophotometric analysis.

[3] = Kinetics of ciprofloxacin adsorption by activated charcoal measured by microbiological assay; settings: ciprofloxacin 50 μg/ml, 150 μg/ml activated charcoal, pH 6.0
Procedure: The microbiological assay consists in measuring the biological activity of an antibiotic, i.e. its capacity to inhibit the growth of an indicator bacterial strain. […] 20 μl samples containing the antibiotic to be measured were spotted onto paper discs applied directly onto the surface of the agar plates. After 18 h incubation at 37° C., the diameters of the zones around the paper discs where bacterial growth had been inhibited by the presence of the antibiotic were measured.

[4] = 10:1 ratio of activated charcoal/irinotecan, 200 μg/mL, simulated ileal medium pH 7.5
From the text: Samples were centrifuged, filtered, and diluted ten-fold, prior to determination of the non-adsorbed concentration of irinotecan by measuring its absorbance at 368 nm using a spectrophotometer.

[5] = start 3/1, extra charcoal: 6/1 after 1 h and 9/1 after 2 h
[6] = start 10/1, extra charcoal: 20/1 after 1 h and 30/1 after 2 h

Row | SMILES | Residual antibiotic after 2 h (*) [2, 5] | Residual antibiotic after 2 h (*) [2, 6] | other results
1 | CCc1c2c(nc3ccc(O)cc13)-c1cc3c(c(=O)n1C2)COC(=O)[C@]3(O)CC [SN-38, 7-ethyl-10-hydroxycamptothecin] |  |  | time to complete adsorption [1]: ~30 min; antineoplastic activity relative to the prodrug form (Irinotecan) (topoisomerase I): 1000 fold
2 | C[C@]1(Cn2ccnn2)[C@H](C(=O)O)N2C(=O)C[C@H]2S1(=O)=O [Tazobactam] | <20% |  | 
3 | O=C(O)c1cn(C2CC2)c2cc(N3CCNCC3)c(F)cc2c1=O [Ciprofloxacine] |  |  | antibiotic adsorbed by the charcoal ([3]; time zero sample = approximately one minute of contact): ~70%; antibiotic adsorbed onto the charcoal ([3]; within one hour): Almost all of the antibiotic was adsorbed
4 | CCc1c2c(nc3ccc(OC(=O)N4CCC(N5CCCCC5)CC4)cc13)-c1cc3c(c(=O)n1C2)COC(=O)[C@]3(O)CC [irinotecan, Irinotecan] |  |  | time to complete adsorption [4]: about 15 minutes
5 | CC[C@H]1OC(=O)C[C@@H](O)[C@H](C)[C@@H](O[C@@H]2O[C@H](C)[C@@H](O[C@H]3C[C@@](C)(O)[C@@H](O)[C@H](C)O3)[C@H](N(C)C)[C@H]2O)[C@@H](CC=O)C[C@@H](C)C(=O)/C=C/C(C)=C/[C@@H]1CO[C@@H]1O[C@H](C)[C@@H](O)[C@@H](OC)[C@H]1OC [Tylosine] | <3% | <3% | 
6 | O=C(O)[C@H]1/C(=C/CO)O[C@@H]2CC(=O)N21 [Clavulanate] | 22% | 3.5% | 
7 | CN(C)c1cc(NC(=O)CNC(C)(C)C)c(O)c2c1C[C@H]1C[C@H]3[C@H](N(C)C)C(O)=C(C(N)=O)C(=O)[C@@]3(O)C(O)=C1C2=O [Tigecycline] | 21% |  | 
8 | CN[C@H](CC(C)C)C(=O)N[C@H]1C(=O)N[C@@H](CC(N)=O)C(=O)N[C@H]2C(=O)N[C@H]3C(=O)N[C@H](C(=O)N[C@H](C(=O)O)c4cc(O)cc(O)c4-c4cc3ccc4O)[C@H](O)c3ccc(c(Cl)c3)Oc3cc2cc(c3O[C@@H]2O[C@H](CO)[C@@H](O)[C@H](O)[C@H]2O[C@H]2C[C@](C)(N)[C@H](O)[C@H](C)O2)Oc2ccc(cc2Cl)[C@H]1O [Vancomycin] | 27% | <1.25% | 
